# Measurements as given in the NIST ThermoML archive (doi:10.1016/j.tca.2016.08.021).
# Numbers after ± are expanded uncertainties.
# How the values were obtained:
# [1] = xn = mol fraction of the nth substance listed; conditions: 100 kPa, Liquid; for viscosity: Capillary tube (Ostwald / Ubbelohde) method; for mass density: Vibrating tube method
# [2] = 100 kPa, Liquid; for viscosity: Capillary tube (Ostwald / Ubbelohde) method; for mass density: Vibrating tube method
smiles,measurement,setting,value
O [water] + CCNCCO,viscosity,"[1]; 293.15 K, x1 = 1",1.01 ± 0.02 mPa·s
same,mass density,"[1]; 293.15 K, x1 = 1",998 ± 4 kg/m3
same,viscosity,"[1]; 303.15 K, x1 = 1",0.8 ± 0.02 mPa·s
same,mass density,"[1]; 303.15 K, x1 = 1",995.1 ± 4 kg/m3
same,viscosity,"[1]; 313.15 K, x1 = 1",0.65 ± 0.01 mPa·s
same,viscosity,"[1]; 323.15 K, x1 = 1",0.55 ± 0.01 mPa·s
same,mass density,"[1]; 323.15 K, x1 = 1",989.2 ± 4 kg/m3
same,viscosity,"[1]; 333.15 K, x1 = 1",0.47 ± 0.01 mPa·s
same,mass density,"[1]; 333.15 K, x1 = 1",985 ± 3.9 kg/m3
CCNCCO [2-(ethylamino)ethanol],viscosity,[2]; 293.15 K,15.39 ± 0.34 mPa·s
same,mass density,[2]; 293.15 K,916.8 ± 3.7 kg/m3
same,viscosity,[2]; 303.15 K,9.65 ± 0.22 mPa·s
same,mass density,[2]; 303.15 K,909.7 ± 3.6 kg/m3
same,viscosity,[2]; 313.15 K,6.64 ± 0.15 mPa·s
same,mass density,[2]; 313.15 K,901.3 ± 3.6 kg/m3
same,viscosity,[2]; 323.15 K,4.53 ± 0.1 mPa·s
same,mass density,[2]; 323.15 K,894.7 ± 3.6 kg/m3
same,viscosity,[2]; 333.15 K,3.36 ± 0.07 mPa·s
same,mass density,[2]; 333.15 K,887.2 ± 3.6 kg/m3
CCNCCO [2-(ethylamino)ethanol] + O,viscosity,"[1]; 293.15 K, x2 = 0",15.39 ± 0.34 mPa·s
same,viscosity,"[1]; 293.15 K, x2 = 0.2",23.82 ± 0.53 mPa·s
same,viscosity,"[1]; 293.15 K, x2 = 0.4",31.73 ± 0.68 mPa·s
same,viscosity,"[1]; 293.15 K, x2 = 0.6",31.02 ± 0.66 mPa·s
same,viscosity,"[1]; 293.15 K, x2 = 0.8",13.83 ± 0.35 mPa·s
same,mass density,"[1]; 293.15 K, x2 = 0",916.8 ± 3.7 kg/m3
same,mass density,"[1]; 293.15 K, x2 = 0.2",929.5 ± 3.7 kg/m3
same,mass density,"[1]; 293.15 K, x2 = 0.4",943.1 ± 3.8 kg/m3
same,mass density,"[1]; 293.15 K, x2 = 0.6",961.6 ± 3.9 kg/m3
same,mass density,"[1]; 293.15 K, x2 = 0.8",985.7 ± 3.9 kg/m3
same,viscosity,"[1]; 303.15 K, x2 = 0",9.65 ± 0.22 mPa·s
same,viscosity,"[1]; 303.15 K, x2 = 0.2",14.54 ± 0.33 mPa·s
same,viscosity,"[1]; 303.15 K, x2 = 0.4",18.56 ± 0.43 mPa·s
same,viscosity,"[1]; 303.15 K, x2 = 0.6",17.34 ± 0.41 mPa·s
same,viscosity,"[1]; 303.15 K, x2 = 0.8",8.34 ± 0.21 mPa·s
same,mass density,"[1]; 303.15 K, x2 = 0",909.7 ± 3.6 kg/m3
same,mass density,"[1]; 303.15 K, x2 = 0.2",922.4 ± 3.7 kg/m3
same,mass density,"[1]; 303.15 K, x2 = 0.4",936.1 ± 3.8 kg/m3
same,mass density,"[1]; 303.15 K, x2 = 0.6",954.8 ± 3.8 kg/m3
same,mass density,"[1]; 303.15 K, x2 = 0.8",979.5 ± 3.9 kg/m3
same,viscosity,"[1]; 313.15 K, x2 = 0",6.64 ± 0.15 mPa·s
same,viscosity,"[1]; 313.15 K, x2 = 0.2",9.29 ± 0.21 mPa·s
same,viscosity,"[1]; 313.15 K, x2 = 0.4",11.41 ± 0.26 mPa·s
same,viscosity,"[1]; 313.15 K, x2 = 0.6",10.71 ± 0.24 mPa·s
same,viscosity,"[1]; 313.15 K, x2 = 0.8",5.44 ± 0.13 mPa·s
same,mass density,"[1]; 313.15 K, x2 = 0",901.3 ± 3.6 kg/m3
same,mass density,"[1]; 313.15 K, x2 = 0.2",914 ± 3.7 kg/m3
same,mass density,"[1]; 313.15 K, x2 = 0.4",927.8 ± 3.7 kg/m3
same,mass density,"[1]; 313.15 K, x2 = 0.6",946 ± 3.8 kg/m3
same,mass density,"[1]; 313.15 K, x2 = 0.8",972.5 ± 3.9 kg/m3
same,viscosity,"[1]; 323.15 K, x2 = 0",4.53 ± 0.1 mPa·s
same,viscosity,"[1]; 323.15 K, x2 = 0.2",6.23 ± 0.14 mPa·s
same,viscosity,"[1]; 323.15 K, x2 = 0.4",7.3 ± 0.16 mPa·s
same,viscosity,"[1]; 323.15 K, x2 = 0.6",7.08 ± 0.16 mPa·s
same,viscosity,"[1]; 323.15 K, x2 = 0.8",3.73 ± 0.09 mPa·s
same,mass density,"[1]; 323.15 K, x2 = 0",894.7 ± 3.6 kg/m3
same,mass density,"[1]; 323.15 K, x2 = 0.2",907.4 ± 3.6 kg/m3
same,mass density,"[1]; 323.15 K, x2 = 0.4",920.7 ± 3.7 kg/m3
same,mass density,"[1]; 323.15 K, x2 = 0.6",938.7 ± 3.8 kg/m3
same,mass density,"[1]; 323.15 K, x2 = 0.8",963 ± 3.9 kg/m3
same,viscosity,"[1]; 333.15 K, x2 = 0",3.36 ± 0.07 mPa·s
same,viscosity,"[1]; 333.15 K, x2 = 0.2",4.52 ± 0.1 mPa·s
same,viscosity,"[1]; 333.15 K, x2 = 0.4",5.03 ± 0.12 mPa·s
same,viscosity,"[1]; 333.15 K, x2 = 0.6",4.68 ± 0.11 mPa·s
same,viscosity,"[1]; 333.15 K, x2 = 0.8",2.69 ± 0.06 mPa·s
same,mass density,"[1]; 333.15 K, x2 = 0",887.2 ± 3.6 kg/m3
same,mass density,"[1]; 333.15 K, x2 = 0.2",898.6 ± 3.6 kg/m3
same,mass density,"[1]; 333.15 K, x2 = 0.4",912 ± 3.7 kg/m3
same,mass density,"[1]; 333.15 K, x2 = 0.6",931.1 ± 3.7 kg/m3
same,mass density,"[1]; 333.15 K, x2 = 0.8",955.6 ± 3.8 kg/m3
CCN(CC)CCO [(diethylamino)ethanol],viscosity,[2]; 293.15 K,4.81 ± 0.1 mPa·s
same,mass density,[2]; 293.15 K,883.5 ± 3.5 kg/m3
same,viscosity,[2]; 303.15 K,3.37 ± 0.07 mPa·s
same,mass density,[2]; 303.15 K,875.1 ± 3.5 kg/m3
same,viscosity,[2]; 313.15 K,2.46 ± 0.05 mPa·s
same,mass density,[2]; 313.15 K,866.2 ± 3.5 kg/m3
same,viscosity,[2]; 323.15 K,1.86 ± 0.04 mPa·s
same,mass density,[2]; 323.15 K,857.5 ± 3.4 kg/m3
same,viscosity,[2]; 333.15 K,1.46 ± 0.03 mPa·s
same,mass density,[2]; 333.15 K,849.2 ± 3.4 kg/m3
CCNCCO [2-(ethylamino)ethanol] + CCN(CC)CCO,viscosity,"[1]; 293.15 K, x2 = 0",15.39 ± 0.34 mPa·s
same,viscosity,"[1]; 293.15 K, x2 = 0.2",12.19 ± 0.27 mPa·s
same,viscosity,"[1]; 293.15 K, x2 = 0.4",9.87 ± 0.22 mPa·s
same,viscosity,"[1]; 293.15 K, x2 = 0.6",8.04 ± 0.18 mPa·s
same,viscosity,"[1]; 293.15 K, x2 = 0.8",6.36 ± 0.14 mPa·s
same,mass density,"[1]; 293.15 K, x2 = 0",916.8 ± 3.7 kg/m3
same,mass density,"[1]; 293.15 K, x2 = 0.2",910 ± 3.6 kg/m3
same,mass density,"[1]; 293.15 K, x2 = 0.4",903 ± 3.6 kg/m3
same,mass density,"[1]; 293.15 K, x2 = 0.6",897 ± 3.6 kg/m3
same,mass density,"[1]; 293.15 K, x2 = 0.8",889.7 ± 3.6 kg/m3
same,viscosity,"[1]; 303.15 K, x2 = 0",9.65 ± 0.22 mPa·s
same,viscosity,"[1]; 303.15 K, x2 = 0.2",7.84 ± 0.18 mPa·s
same,viscosity,"[1]; 303.15 K, x2 = 0.4",6.51 ± 0.15 mPa·s
same,viscosity,"[1]; 303.15 K, x2 = 0.6",5.4 ± 0.12 mPa·s
same,viscosity,"[1]; 303.15 K, x2 = 0.8",4.36 ± 0.1 mPa·s
same,mass density,"[1]; 303.15 K, x2 = 0",909.7 ± 3.6 kg/m3
same,mass density,"[1]; 303.15 K, x2 = 0.2",903 ± 3.6 kg/m3
same,mass density,"[1]; 303.15 K, x2 = 0.4",895.5 ± 3.6 kg/m3
same,mass density,"[1]; 303.15 K, x2 = 0.6",889 ± 3.6 kg/m3
same,mass density,"[1]; 303.15 K, x2 = 0.8",881.6 ± 3.5 kg/m3
same,viscosity,"[1]; 313.15 K, x2 = 0",6.64 ± 0.15 mPa·s
same,viscosity,"[1]; 313.15 K, x2 = 0.2",5.35 ± 0.12 mPa·s
same,viscosity,"[1]; 313.15 K, x2 = 0.4",4.5 ± 0.1 mPa·s
same,viscosity,"[1]; 313.15 K, x2 = 0.6",3.78 ± 0.08 mPa·s
same,viscosity,"[1]; 313.15 K, x2 = 0.8",3.11 ± 0.07 mPa·s
same,mass density,"[1]; 313.15 K, x2 = 0",901.3 ± 3.6 kg/m3
same,mass density,"[1]; 313.15 K, x2 = 0.2",894.8 ± 3.6 kg/m3
same,mass density,"[1]; 313.15 K, x2 = 0.4",887.6 ± 3.6 kg/m3
same,mass density,"[1]; 313.15 K, x2 = 0.6",880.2 ± 3.5 kg/m3
same,mass density,"[1]; 313.15 K, x2 = 0.8",873 ± 3.5 kg/m3
same,viscosity,"[1]; 323.15 K, x2 = 0",4.53 ± 0.1 mPa·s
same,viscosity,"[1]; 323.15 K, x2 = 0.2",3.85 ± 0.08 mPa·s
same,viscosity,"[1]; 323.15 K, x2 = 0.4",3.3 ± 0.07 mPa·s
same,viscosity,"[1]; 323.15 K, x2 = 0.6",2.8 ± 0.06 mPa·s
same,viscosity,"[1]; 323.15 K, x2 = 0.8",2.31 ± 0.05 mPa·s
same,mass density,"[1]; 323.15 K, x2 = 0",894.7 ± 3.6 kg/m3
same,mass density,"[1]; 323.15 K, x2 = 0.2",887.8 ± 3.6 kg/m3
same,mass density,"[1]; 323.15 K, x2 = 0.4",880 ± 3.5 kg/m3
same,mass density,"[1]; 323.15 K, x2 = 0.6",872.2 ± 3.5 kg/m3
same,mass density,"[1]; 323.15 K, x2 = 0.8",864.6 ± 3.5 kg/m3
same,viscosity,"[1]; 333.15 K, x2 = 0",3.36 ± 0.07 mPa·s
same,viscosity,"[1]; 333.15 K, x2 = 0.2",2.88 ± 0.06 mPa·s
same,viscosity,"[1]; 333.15 K, x2 = 0.4",2.48 ± 0.05 mPa·s
same,viscosity,"[1]; 333.15 K, x2 = 0.6",2.14 ± 0.05 mPa·s
same,viscosity,"[1]; 333.15 K, x2 = 0.8",1.79 ± 0.04 mPa·s
same,mass density,"[1]; 333.15 K, x2 = 0",887.2 ± 3.6 kg/m3
same,mass density,"[1]; 333.15 K, x2 = 0.2",880.6 ± 3.5 kg/m3
same,mass density,"[1]; 333.15 K, x2 = 0.4",872.1 ± 3.5 kg/m3
same,mass density,"[1]; 333.15 K, x2 = 0.6",864.3 ± 3.5 kg/m3
same,mass density,"[1]; 333.15 K, x2 = 0.8",856.4 ± 3.4 kg/m3
CCN(CC)CCO [(diethylamino)ethanol] + CCNCCO,viscosity,"[1]; 293.15 K, x1 = 1",4.81 ± 0.1 mPa·s
same,mass density,"[1]; 293.15 K, x1 = 1",883.5 ± 3.5 kg/m3
same,viscosity,"[1]; 303.15 K, x1 = 1",3.37 ± 0.07 mPa·s
same,mass density,"[1]; 303.15 K, x1 = 1",875.1 ± 3.5 kg/m3
same,viscosity,"[1]; 313.15 K, x1 = 1",2.46 ± 0.05 mPa·s
same,mass density,"[1]; 313.15 K, x1 = 1",866.2 ± 3.5 kg/m3
same,viscosity,"[1]; 323.15 K, x1 = 1",1.86 ± 0.04 mPa·s
same,mass density,"[1]; 323.15 K, x1 = 1",857.5 ± 3.4 kg/m3
same,viscosity,"[1]; 333.15 K, x1 = 1",1.46 ± 0.03 mPa·s
same,mass density,"[1]; 333.15 K, x1 = 1",849.2 ± 3.4 kg/m3
